Test results as given in patent publication US11884706B2, “Immunomodulating peptide derived from concave-eared torrent frog and use thereof” (priority 2019, dated 2024).

Columns and labels:
[1] = test system: mouse skin wounds; test: Skin wound healing in mice (8 mm biopsy punch wound on the back); format: in vivo, BALB/c mice; settings: 20 μL, 200 μg/mL dripped into wound once a day for 8 days; days 2, 4, 6, 8 after operation; vs PBS
Procedure: Experimental animals BALB/c mice, female, 6-8 weeks old, weighed 18-20 g, were purchased from Shanghai Slac Animal Co., Ltd. The mice were anesthetized by intraperitoneal injection of 2% sodium pentobarbital (0.1 mL/20 g), and the back was shaved with an electric razor and disinfected with iodophor. A hole was punched in the exposed back by a biopsy punch having a diameter of 8 mm. After the operation, the mice were kept in separate cages until the end of the experiment. The mice were randomly divided into 6 groups having 5 animals in each group, including a negative control group (20 μL PBS), a natural Ot-WHP group (20 μL, 200 μg/mL), a synthetic Ot-WHP group (20 μL, 200 μg/mL), a scrambled Ot-WHP group (SEQ ID NO:2, 20 μL, 200 μg/mL), an AH90 positive polypeptide control group (20 μL, 200 μg/mL), and an EGF growth factor control group (20 μL, 100 μg/mL). The drugs were dripped into corresponding wounds in mice once a day for 8 days.
FIGS. 3A1-A4 show the wound healing rate of mice in different experimental groups at 2, 4, 6, and 8 days after surgery. In the figures, Vehicle represents the negative control group; synthetic Ot-WHP represents the synthetic Ot-WHP group; Natural Ot-WHP represents the natural Ot-WHP group; and Scrambled Ot-WHP represents the scrambled Ot-WHP group.

[2] = test system: mouse fibroblasts; test: Fibroblast proliferation, co-incubation with mouse macrophages BMDMs (CCK-8); format: cell-based; settings: mouse fibroblasts with BMDMs, 25, 50, 100 μg/mL, 72 h
Procedure: (§1) HaCat was co-incubated with THP-1 derived macrophages, and mouse fibroblasts were co-incubated with mouse macrophages BMDMs. HaCat (1×10^5 cells/well) or mouse fibroblasts (1×10^5 cells/well) were inoculated into a 24-well plate (lower chamber) one day in advance. After adherence, corresponding macrophages (1×10^5 cells/well, 100 μL) and different concentrations of Ot-WHP (25, 50, 100 μg/mL) or Vehicle (PBS, control) were added to the co-incubation chamber (upper chamber). After HaCat was co-incubated with THP-1-derived macrophages for 24 h, and the fibroblasts were co-incubated with mouse macrophages BMDMs for 72 h, the co-incubated upper chamber was discarded, and the cell activity in the lower chamber was detected by CCK-8.

[3] = test system: mouse neutrophils; test: Transwell migration in co-incubation system with BMDMs in lower chamber; format: cell-based; settings: 25-100 μg/mL, 8 h
Procedure: (§2) In a co-incubation system, mouse bone marrow-derived macrophages (BMDMs, 4×10^6 cells/mL, 500 μL) resuspended in RPMI 1640 medium containing 2% FBS were plated in the lower chamber (24-well plate) of the co-incubation chamber. After adherence, the prepared mouse neutrophils (7×10^6 cells/mL, 100 μL) or bone marrow-derived macrophages (BMDMs, 7×10^6 cells/mL, 100 μL) were added to the Transwell chamber with a pore size of 3.0 μm (upper chamber, 24-well plate). Then 500 μL of Ot-WHP (25, 50, 100 μg/mL, dissolved in RPMI 1640 medium containing 2% FBS) or the culture medium (control) was added to the lower chamber, and then cultured in a cell incubator at 37° C. for 8 h. The cells in the upper chamber were collected and counted with a hemocytometer. The reduced cells in the upper chamber are the migrated cells

[4] = test system: mouse bone marrow-derived macrophages (BMDMs); test: Chemokine and cytokine production in BMDM supernatant; format: cell-based; settings: 25, 50, 100 μg/mL, 24 h, vs PBS
Procedure: To clarify why Ot-WHP can cause the migration of neutrophils and macrophages in the coexistence of macrophages, mouse bone marrow-derived macrophages (BMDMs, 5×10^5 cells/well, DMEM medium, 2% FBS) were plated in a 24-well plate, Ot-WHP (25, 50, 100 μg/mL) or an equal volume of PBS (Vehicle) were added, and cultured for 24 h. The supernatant was collected, and centrifuged at 10000×g for 10 min. The chemokines and cytokines were determined.

[5] = test system: Keratinocytes HaCat; test: Keratinocyte proliferation, direct (CCK-8); format: cell-based; settings: HaCat, 25, 50, 100 μg/mL, 24 h
Procedure: (§3) Keratinocytes HaCat and mouse fibroblasts (5×10^3 cells/well, 100 μL/well) were inoculated into a 96-well plate, and incubated with different concentrations of Ot-WHP (25, 50, and 100 μg/mL). PBS was used as a control. After HaCat was incubated with Ot-WHP for 24 h, and the fibroblasts were incubated with Ot-WHP for 72 h, 10 μl of Cell Counting Kit-8 (CCK-8) solution was added to each well, and incubated for another 2-4 h at 37° C. The absorbency at 450 nm was detected on a microplate reader.

[6] = test system: α-SMA in fibroblasts; test: α-SMA expression in fibroblasts by Western blot, direct; format: cell-based, mouse; settings: fibroblasts alone, treated as in Example 8
Procedure: as §3
(§4) The method was the same as that in Example 8. The fibroblasts treated in Example 8 were lysed with RIPA cell lysis solution. The protein was extracted, and the expression of α-SMA was detected by Western blot. A higher expression level of α-SMA means a higher transformation of fibroblasts into […]. The supernatant of the fibroblasts treated in Example 8 was collected, and the production of collagen in the supernatant was quantitatively detected with an ELISA kit.

[7] = test system: bone marrow-derived macrophages (BMDMs); test: Transwell migration, direct (peptide in lower chamber); format: cell-based, mouse; settings: 25-100 μg/mL, 8 h, no macrophages in lower chamber
Procedure: (§5) To clarify how Ot-WHP chemoattracts neutrophils and macrophages to the wound area, the prepared mouse neutrophils or bone marrow-derived macrophages (BMDMs) were resuspended in RPMI 1640 medium containing 2% FBS at a cell density of 7×10^6 cells/mL. 100 μL was pipetted to a Transwell chamber with a pore size of 3.0 μm (upper chamber, 24-well plate). Then 500 μL of Ot-WHP (25, 50, 100 μg/mL, dissolved in RPMI 1640 medium containing 2% FBS) or the culture medium (control) was pipetted to the lower chamber, and then cultured in a cell incubator at 37° C. for 8 h. The cells in the lower chamber were collected and counted with a hemocytometer.

[8] = test system: NF-κB (IκBα, p65 subunit); test: Activation of NF-κB signaling in BMDMs; format: cell-based, mouse; settings: BMDMs, 0, 25, 50, 100 μg/mL, 30 min
Procedure: (§6) Mouse bone marrow-derived macrophages (BMDMs) were inoculated into a 6-well plate and cultured without serum for 16 h. For the detection of MAPKs and NF-κB, BMDMs were incubated with different concentrations of Ot-WHP (0, 25, 50, 100 μg/mL) for 30 min. For the detection of TGF-β/Smad signaling pathway, BMDMs were incubated with different concentrations of Ot-WHP (0, 25, 50, 100 μg/mL) for 24 h, or BMDMs were incubated with 100 μg/mL Ot-WHP, with or without TGF-β1 antibody.

[9] = test system: skin wounds of mice; test: Chemokine and cytokine production in skin wound tissue homogenate; format: in vivo; settings: days 0, 0.5, 1, 2, 4, 6, vs PBS
Procedure: Then whether Ot-WHP can induce the production of chemokines and cytokines in the skin wounds of mice was tested. At specified time points (days 0, 0.5, 1, 2, 4, and 6), the wound tissue of the mice was removed and homogenized with 0.1 M PBS (containing 1 mM PMSF, 1 mL/g tissue) in a glass homogenizer. After the homogenization, the homogenate was centrifuged at 12000×g and 4° C. for 30 min. The supernatant was collected, and the chemokines (CXCL1 and CCL2) and cytokines (including TNF-α and TGF-β1) were determined.

[10] = test system: mouse neutrophils; test: Transwell migration, direct (peptide in lower chamber); format: cell-based; settings: 25-100 μg/mL, 8 h, no macrophages in lower chamber
Procedure: as §5

[11] = test system: fibroblasts; test: Collagen in fibroblast supernatant by ELISA, direct; format: cell-based, mouse; settings: fibroblasts alone
Procedure: as §3, §4

[12] = test system: α-SMA in fibroblasts; test: α-SMA expression in fibroblasts by Western blot, co-incubation with macrophages; format: cell-based, mouse; settings: fibroblasts co-incubated with macrophages
Procedure: as §1, §4

[13] = test system: HaCat; test: Keratinocyte proliferation, co-incubation with THP-1 derived macrophages (CCK-8); format: cell-based; settings: HaCat with THP-1 derived macrophages, 25, 50, 100 μg/mL, 24 h
Procedure: as §1

[14] = test system: mouse fibroblasts; test: Fibroblast proliferation, direct (CCK-8); format: cell-based; settings: mouse fibroblasts, 25, 50, 100 μg/mL, 72 h
Procedure: as §3

[15] = test system: MAPKs (ERK, JNK subunit); test: Activation of MAPKs signaling in BMDMs; format: cell-based, mouse; settings: BMDMs, 0, 25, 50, 100 μg/mL, 30 min
Procedure: as §6

[16] = test system: bone marrow-derived macrophages (BMDMs); test: Transwell migration in co-incubation system with BMDMs in lower chamber; format: cell-based, mouse; settings: 25-100 μg/mL, 8 h
Procedure: as §2

[17] = test system: neutrophils; test: Immunohistochemical count of neutrophils (anti-Ly6G) recruited to the wound; format: in vivo, mice; settings: natural Ot-WHP dripped to wound; days 0.5 and 1 after operation; vs negative control
Procedure: (§7) The mice were treated according to the method in Example 3. The drugs in the negative control group and the natural Ot-WHP group were dripped to wounds of corresponding mice. At specified time point (0.5, 1, 2, 3 days) after the operation, the mice were sacrificed. A biopsy tissue containing the wound center was taken, immobilized with 10% formalin, then dehydrated by ethanol, washed with xylene, and finally embedded in paraffin. The paraffin block was cut into 5 μm slices, deparaffinized, and hydrated, and antigen retrieval was performed for immunohistochemical analysis. The slice was blocked with 5% BSA for non-specific sites, incubated with the primary antibody (anti-Ly6G for neutrophils, and anti-F4/80 for macrophages) at 4° C., and immunostained with horseradish peroxidase and DBA. The infiltration by neutrophils and macrophages was measured by statistically counting the immunostained anti-Ly6G and anti-F4/80 cells.
(§8) FIGS. 4A1-A4 show the immunohistochemical results of neutrophils recruited on days 0.5 and 1 after operation of mice in different groups. FIGS. 4C1-C4 show the immunohistochemical results of macrophages recruited on days 2 and 3 after operation of mice in different groups. FIGS. 4B1-B2 show the statistical results of neutrophils recruited on days 0.5 and 1 after operation of mice in different groups. […]

[18] = test system: Smad (Smad2, Smad3); test: Activation of TGF-β/Smad signaling in BMDMs; format: cell-based, mouse
Procedure: as §6

[19] = test system: macrophages; test: Immunohistochemical count of macrophages (anti-F4/80) recruited to the wound; format: in vivo, mice; settings: natural Ot-WHP dripped to wound; days 2 and 3 after operation; vs negative control
Procedure: as §7, §8

[20] = test system: fibroblasts; test: Collagen in fibroblast supernatant by ELISA, co-incubation with macrophages; format: cell-based, mouse; settings: fibroblasts co-incubated with macrophages
Procedure: as §1, §4

scrambled Ot-WHP: scrambled Ot-WHP, SEQ ID NO:2, control peptide (PGPIPAHLGRRWAILIRPDLTRCG; Scrambled Ot-WHP Peptide) [reference compound]
healing of mouse skin wounds (wound healing rate) [1]: no activity to promote wound repair

Ot-WHP: immunomodulating peptide of 24 amino acids from concave-eared torrent frog skin, sequence ATAWDLGPHGIRPLRPIRIRPLCG (SEQ ID NO:1); natural (purified) or chemically synthesized (Ot-WHP Peptide; listed as Odorrana tormota)
healing of mouse skin wounds (wound healing rate) [1]: significantly promote the healing of mouse skin wounds with an effect comparable to AH90 and EGF
proliferation of fibroblasts when macrophages coexist [2]: can promote the proliferation
migration of neutrophils when macrophages coexist [3]: significantly causes the migration
CCL2 production in BMDMs [4]: induces mouse BMDMs to produce
CXCL1 production in BMDMs [4]: induces mouse BMDMs to produce
CXCL2 production in BMDMs [4]: induces mouse BMDMs to produce
CXCL3 production in BMDMs [4]: induces mouse BMDMs to produce
IL-1β production in BMDMs [4]: induces mouse BMDMs to produce
IL-6 production in BMDMs [4]: induces mouse BMDMs to produce
TGF-β1 production in BMDMs [4]: induces mouse BMDMs to produce
TNF-α production in BMDMs [4]: induces mouse BMDMs to produce
proliferation of keratinocytes, direct [5]: cannot directly promote the proliferation
expression of α-SMA in fibroblasts (transformation into fibrocytes), direct [6]: no direct effect on the expression of α-SMA in fibroblasts
migration of macrophages, direct [7]: does not directly cause the migration
activation of NF-κB (IκBα, p65 subunit) signaling pathway [8]: activates
CCL2 production in skin wounds [9]: effectively induce the production
CXCL1 production in skin wounds [9]: effectively induce the production
TGF-β1 production in skin wounds [9]: effectively induce the production
TNF-α production in skin wounds [9]: effectively induce the production
migration of neutrophils, direct [10]: does not directly cause the migration
collagen production by fibroblasts, direct [11]: no direct effect on the collagen production by fibroblasts
expression of α-SMA by fibroblasts (transformation into fibrocytes) with coexisting macrophages [12]: promote the expression of α-SMA by fibroblast
proliferation of keratinocytes when macrophages coexist [13]: can promote the proliferation
proliferation of fibroblasts, direct [14]: cannot directly promote the proliferation
activation of MAPKs (ERK, JNK subunit) signaling pathway [15]: activates
migration of macrophages when macrophages coexist [16]: significantly causes the migration
migration of neutrophils to the wound [17]: promote the migration of neutrophils and macrophages to the wound
activation of Smad (Smad2, Smad3) signaling pathway ([18]; BMDMs, 0, 25, 50, 100 μg/mL, 24 h): activates
dependence of Smad activation on TGF-β ([18]; BMDMs, 100 μg/mL, with or without TGF-β1 antibody): dependent on the production of TGF-β induced by Ot-WHP
migration of macrophages to the wound [19]: promote the migration of neutrophils and macrophages to the wound
collagen production by fibroblasts with coexisting macrophages [20]: promote the collagen production by fibroblasts
